# Source: paper PMC10698194 (Nature Communications, 2023)
# Where “and” joins values, the source holds several entries; their conditions need not be identical. Equal entries are not always repeated. Where two headings read alike, the source gives them in different places.
# Assays:
# [1] = target: T1, mouse KOR, Gαi2 (Mus musculus, UniProt P33534); assay: TRUPATH BRET G protein assay, Gαi2; assay type: cell-based
# T1 construct: expressed in transfected cells; host or cells: HEK293T (ATCC, CRL-3216), transient
# T1 sequence (P33534 whole entry): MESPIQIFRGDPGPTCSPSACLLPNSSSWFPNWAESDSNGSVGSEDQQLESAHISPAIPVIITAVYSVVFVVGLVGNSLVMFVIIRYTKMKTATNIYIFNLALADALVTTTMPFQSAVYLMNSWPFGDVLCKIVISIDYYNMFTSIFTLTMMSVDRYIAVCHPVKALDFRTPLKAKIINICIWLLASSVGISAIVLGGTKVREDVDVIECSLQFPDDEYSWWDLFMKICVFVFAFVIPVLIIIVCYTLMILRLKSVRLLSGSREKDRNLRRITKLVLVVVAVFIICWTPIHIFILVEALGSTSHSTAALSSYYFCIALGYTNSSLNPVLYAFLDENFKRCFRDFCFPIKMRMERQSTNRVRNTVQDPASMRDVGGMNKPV
# [2] = target: mouse KOR, Gαz (Mus musculus, UniProt P33534); assay: TRUPATH BRET G protein assay, Gαz; assay type: cell-based
# mouse KOR, Gαz, sequence (P33534 whole entry): as above
# mouse KOR, Gαz, sequence (P19086 2-355 partner): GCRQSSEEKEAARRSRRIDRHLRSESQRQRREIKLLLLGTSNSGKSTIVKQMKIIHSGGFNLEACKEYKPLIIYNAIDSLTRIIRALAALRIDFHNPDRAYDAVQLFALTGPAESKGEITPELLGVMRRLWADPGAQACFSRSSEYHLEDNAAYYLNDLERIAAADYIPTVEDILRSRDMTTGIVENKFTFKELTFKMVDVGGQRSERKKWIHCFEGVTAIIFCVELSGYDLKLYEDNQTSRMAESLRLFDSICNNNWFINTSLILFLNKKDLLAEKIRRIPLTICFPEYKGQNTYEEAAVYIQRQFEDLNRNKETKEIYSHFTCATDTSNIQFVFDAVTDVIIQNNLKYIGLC
# [3] = target: mouse KOR, Gαi3 (Mus musculus, UniProt P33534); assay: TRUPATH BRET G protein assay, Gαi3; assay type: cell-based; conditions: TRUPATH; read-out: Emax (%) Gαi3
# mouse KOR, Gαi3, sequence (P33534 whole entry): as the sequence (P33534 whole entry) above
# mouse KOR, Gαi3, sequence (P08754 2-354 partner): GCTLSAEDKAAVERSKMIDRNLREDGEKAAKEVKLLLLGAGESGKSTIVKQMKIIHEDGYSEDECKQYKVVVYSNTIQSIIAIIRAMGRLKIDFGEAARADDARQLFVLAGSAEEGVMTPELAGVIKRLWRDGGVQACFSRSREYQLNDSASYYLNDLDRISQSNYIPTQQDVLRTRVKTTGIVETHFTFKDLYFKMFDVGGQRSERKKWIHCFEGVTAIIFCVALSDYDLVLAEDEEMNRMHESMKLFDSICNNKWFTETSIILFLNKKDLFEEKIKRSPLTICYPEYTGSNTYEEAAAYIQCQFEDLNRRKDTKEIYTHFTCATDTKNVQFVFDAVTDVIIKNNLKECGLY
# [4] = target: mouse KOR, GαoB (Mus musculus, UniProt P33534); assay: TRUPATH BRET G protein assay, GαoB; assay type: cell-based; conditions: TRUPATH; read-out: Emax (%) GαoB
# mouse KOR, GαoB, sequence (P33534 whole entry): as the sequence (P33534 whole entry) above
# mouse KOR, GαoB, sequence (P09471 2-354 partner): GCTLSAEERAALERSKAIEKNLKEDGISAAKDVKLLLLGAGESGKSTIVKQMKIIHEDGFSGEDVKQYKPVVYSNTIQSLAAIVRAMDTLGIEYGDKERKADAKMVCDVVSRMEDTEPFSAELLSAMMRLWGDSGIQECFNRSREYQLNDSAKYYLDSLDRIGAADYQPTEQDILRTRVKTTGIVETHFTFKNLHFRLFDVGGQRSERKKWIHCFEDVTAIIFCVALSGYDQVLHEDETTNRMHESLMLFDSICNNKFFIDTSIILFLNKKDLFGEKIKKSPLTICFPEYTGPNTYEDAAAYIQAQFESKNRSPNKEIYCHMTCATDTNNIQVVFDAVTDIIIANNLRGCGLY
# [5] = target: mouse KOR, Gαgustducin (Mus musculus, UniProt P33534); assay: TRUPATH BRET G protein assay, Gαgustducin; assay type: cell-based; conditions: read-out: Emax (%) Gαgustducin
# mouse KOR, Gαgustducin, sequence (P33534 whole entry): as the sequence (P33534 whole entry) above
# mouse KOR, Gαgustducin, sequence (A8MTJ3 2-354 partner): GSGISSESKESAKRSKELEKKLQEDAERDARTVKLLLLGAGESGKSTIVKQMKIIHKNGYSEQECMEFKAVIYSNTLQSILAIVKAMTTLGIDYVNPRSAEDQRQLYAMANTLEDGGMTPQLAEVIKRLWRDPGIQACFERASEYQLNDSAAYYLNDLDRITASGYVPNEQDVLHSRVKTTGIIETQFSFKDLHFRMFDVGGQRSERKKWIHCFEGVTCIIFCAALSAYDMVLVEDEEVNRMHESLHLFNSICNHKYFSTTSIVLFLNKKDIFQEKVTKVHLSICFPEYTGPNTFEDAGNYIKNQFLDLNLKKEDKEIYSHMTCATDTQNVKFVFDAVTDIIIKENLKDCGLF
# [6] = target: mouse KOR, GαoA (Mus musculus, UniProt P33534); assay: TRUPATH BRET G protein assay, GαoA; assay type: cell-based; conditions: TRUPATH; read-out: Emax (%) GαoA
# mouse KOR, GαoA, sequence (P33534 whole entry): as the sequence (P33534 whole entry) above
# mouse KOR, GαoA, sequence (P09471 2-354 partner): as the sequence (P09471 2-354 partner) above
# [7] = target: mouse KOR, Gαi1 (Mus musculus, UniProt P33534); assay: TRUPATH BRET G protein assay, Gαi1; assay type: cell-based; conditions: TRUPATH; read-out: Emax (%) Gαi1
# mouse KOR, Gαi1, sequence (P33534 whole entry): as the sequence (P33534 whole entry) above
# mouse KOR, Gαi1, sequence (P63096 2-354 partner): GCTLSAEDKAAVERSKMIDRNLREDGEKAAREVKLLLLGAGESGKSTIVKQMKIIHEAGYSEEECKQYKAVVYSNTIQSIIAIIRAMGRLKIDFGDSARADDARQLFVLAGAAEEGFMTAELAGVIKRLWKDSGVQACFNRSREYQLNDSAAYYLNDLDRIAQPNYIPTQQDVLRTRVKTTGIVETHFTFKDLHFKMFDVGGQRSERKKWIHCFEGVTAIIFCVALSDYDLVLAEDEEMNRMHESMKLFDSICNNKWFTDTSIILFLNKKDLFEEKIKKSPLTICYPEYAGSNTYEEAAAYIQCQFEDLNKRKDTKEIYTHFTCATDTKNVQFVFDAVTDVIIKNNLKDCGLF
# [8] = target: T2, human KOR (Homo sapiens, UniProt P41145); assay: cell-based; set-up: expressed in transfected cells; host or cells: HEK293, transient
# T2 sequence (P41145 whole entry): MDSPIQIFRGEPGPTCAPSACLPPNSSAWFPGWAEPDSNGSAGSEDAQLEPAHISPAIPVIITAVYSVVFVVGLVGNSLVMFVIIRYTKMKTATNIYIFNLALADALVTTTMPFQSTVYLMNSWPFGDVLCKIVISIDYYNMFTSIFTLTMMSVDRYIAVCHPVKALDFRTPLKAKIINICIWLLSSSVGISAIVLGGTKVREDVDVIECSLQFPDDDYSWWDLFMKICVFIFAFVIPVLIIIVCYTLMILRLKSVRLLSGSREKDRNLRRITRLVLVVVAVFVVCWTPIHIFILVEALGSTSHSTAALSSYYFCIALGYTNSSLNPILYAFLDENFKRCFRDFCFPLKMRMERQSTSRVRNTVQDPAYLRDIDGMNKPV
# [9] = target: T2, human KOR; assay: [35S]GTPγS binding assay, CHO membranes; assay type: biochemical; set-up: expressed in transfected cells; conditions: for stimulation of [35S]GTPγS binding, normalized: replicates
# [10] = target: T3, mouse KOR (Mus musculus, UniProt P33534); assay: biochemical; assay type: binding; set-up: expressed in transfected cells; conditions: for specific [3H]DPN binding, normalized to 100%: replicates
# Target sequence in this assay (P33534 whole entry): as the sequence (P33534 whole entry) above
# [11] = target: T4, human DOR (Homo sapiens, UniProt P41143); assay: [35S]GTPγS binding assay, CHO membranes; assay type: biochemical
# T4 construct: expressed in transfected cells
# T4 sequence (P41143 whole entry): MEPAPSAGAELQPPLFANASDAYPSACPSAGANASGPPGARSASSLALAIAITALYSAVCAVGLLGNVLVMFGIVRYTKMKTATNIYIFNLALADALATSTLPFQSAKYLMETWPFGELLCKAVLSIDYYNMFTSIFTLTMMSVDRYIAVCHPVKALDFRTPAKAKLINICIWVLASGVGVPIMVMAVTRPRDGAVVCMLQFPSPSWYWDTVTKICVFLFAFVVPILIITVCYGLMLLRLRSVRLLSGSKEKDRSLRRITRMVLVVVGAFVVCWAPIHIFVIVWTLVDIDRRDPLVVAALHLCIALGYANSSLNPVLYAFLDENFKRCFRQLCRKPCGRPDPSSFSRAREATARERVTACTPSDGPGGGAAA
# [12] = target: T5, human MOR (Homo sapiens, UniProt P35372); assay: [35S]GTPγS binding assay, CHO membranes; assay type: biochemical
# T5 construct: expressed in transfected cells
# T5 sequence (P35372 whole entry): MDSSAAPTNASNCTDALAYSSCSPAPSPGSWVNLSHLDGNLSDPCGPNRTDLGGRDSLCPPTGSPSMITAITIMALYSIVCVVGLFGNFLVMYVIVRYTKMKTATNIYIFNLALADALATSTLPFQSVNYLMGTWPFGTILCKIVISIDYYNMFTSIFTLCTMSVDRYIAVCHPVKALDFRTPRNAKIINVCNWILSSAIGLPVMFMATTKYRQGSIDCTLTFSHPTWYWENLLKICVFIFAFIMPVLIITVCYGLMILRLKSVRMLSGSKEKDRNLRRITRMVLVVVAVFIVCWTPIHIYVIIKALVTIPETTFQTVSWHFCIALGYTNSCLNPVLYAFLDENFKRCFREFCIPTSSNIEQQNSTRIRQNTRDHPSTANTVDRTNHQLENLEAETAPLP
# [13] = target: T3, mouse KOR; assay: cell-based; set-up: expressed in transfected cells; host or cells: HEK293T, transient; conditions: for β-arrestin-2 recruitment, normalized: replicates
# Target sequence in this assay (P33534 whole entry): as the sequence (P33534 whole entry) above
# Target sequence in this assay (P32121 whole entry partner): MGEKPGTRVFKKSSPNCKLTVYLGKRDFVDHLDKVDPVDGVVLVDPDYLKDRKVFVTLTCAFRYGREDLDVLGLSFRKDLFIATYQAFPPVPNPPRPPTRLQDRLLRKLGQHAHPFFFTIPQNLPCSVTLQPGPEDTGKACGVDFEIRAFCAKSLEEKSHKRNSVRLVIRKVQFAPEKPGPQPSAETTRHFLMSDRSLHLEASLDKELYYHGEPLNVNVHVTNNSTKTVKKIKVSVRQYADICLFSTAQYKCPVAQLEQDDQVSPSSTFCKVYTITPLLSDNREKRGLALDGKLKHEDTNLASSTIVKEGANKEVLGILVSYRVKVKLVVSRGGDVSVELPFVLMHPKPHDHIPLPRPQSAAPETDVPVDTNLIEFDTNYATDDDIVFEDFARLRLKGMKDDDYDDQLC
# [14] = target: T3, mouse KOR; assay: cell-based; set-up: expressed in transfected cells
# Target sequence in this assay (P33534 whole entry): as the sequence (P33534 whole entry) above
# [15] = target: T6, human KOR E297A (Homo sapiens, UniProt P41145, E297A); assay type: cell-based
# T6 construct: FLAG; expressed in transfected cells; host or cells: HEK293T
# T6 sequence (P41145 whole entry E297A): as the sequence (P41145 whole entry) above, with E297A counted along it
# [16] = target: T7, human KOR WT (Homo sapiens, UniProt P41145); assay: cAMP inhibition assay normalized to salvinorin A; assay type: cell-based
# T7 construct: FLAG; expressed in transfected cells; host or cells: HEK293T, transient
# T7 sequence (P41145 whole entry): as the sequence (P41145 whole entry) above
# [17] = in vitro; conditions: human, serum, serum stability, amount remaining, Figure S15
# Method: (§1) Blood was drawn from healthy volunteers devoid of any medication for 14 days from the antecubital vein using 21 G needles and collected in a serum clot activator tube (4 mL tubes, Greiner bio-one). […] Volunteers gave written informed consent before blood donation. […] Blood samples were collected into Vacuette® clot activator tubes (Greiner Bio-One, Austria). After clotting of about 2 h, the samples were centrifuged at 2200 × g for 15 min at 22 °C. The serum was removed and centrifuged again to remove lipids and cell particles at 16,000 × g at 4 °C for 20 min. […] The samples were incubated at 37 °C under continuous shaking at 300 rotations-per-minute. […] The samples were mixed well and incubated on ice for 10 min. For the protein precipitation, 30 µL of a 20% (w/v) trichloroacetic acid was added and incubated on ice for 15 min. The clear supernatant was harvested by centrifugation at 16,000 × g at 4 °C for 20 min and this sample was used for HPLC analysis. The chromatography HPLC system was a ThermoFisher Ultimate 3000 equipped with a pump, autosampler and single wavelength detector. […] The remaining peptide was calculated relative to the AUC at time point zero. The data points were fitted to a one-phase decay function and to determine the resulting half-life of the peptide in serum.
# (§2) 0.1% trifluoroacetic acid in water and acetonitrile/water trifluoroacetic acid 90/10/0.1% (v/v/v) with a
# linear separation gradient over 30 min.
# [18] = human
# Method: as §1, §2
# linear separation gradient over 30 min.
# [19] = target: T7, human KOR WT; assay type: cell-based
# [20] = target: T8, human KOR E209A (Homo sapiens, UniProt P41145, E209A); assay: BRET β-arrestin-2 biosensor assay; assay type: cell-based
# T8 construct: FLAG; expressed in transfected cells; host or cells: HEK293 / HEK293T, transient
# T8 sequence (P41145 whole entry E209A): as the sequence (P41145 whole entry) above, with E209A counted along it
# [21] = target: T6, human KOR E297A; assay: BRET β-arrestin-2 biosensor assay; assay type: cell-based
# [22] = target: T8, human KOR E209A; assay type: cell-based
# [23] = target: T9, human KOR L309A (Homo sapiens, UniProt P41145, L309A); assay: BRET β-arrestin-2 biosensor assay; assay type: cell-based
# T9 construct: FLAG; expressed in transfected cells; host or cells: HEK293T
# T9 sequence (P41145 whole entry L309A): as the sequence (P41145 whole entry) above, with L309A counted along it
# [24] = target: T9, human KOR L309A; assay type: cell-based
# [25] = target: T7, human KOR WT; assay: BRET β-arrestin-2 biosensor assay; assay type: cell-based
structure (smiles),measurement,setting,value
O=C(NC1C=CC2C3Cc4ccc(O)c5c4C2(CCN3CC2CC2)C1O5)c1cccc(I)c1 (stereo not shown) [MP1104],potency (log EC50) Gαi2,[1]; Fig. 3i spider plot,-9.607
same,"Gαi2, normalized response (single replicate values)",[1]; Log [ligand] (M) -5,68.8651 and 55.859 and 33.3938 and 78.3335 and 54.4028 and 51.6416 and 70.9702 and 67.6827
same,"Gαi2, normalized response (single replicate values)",[1]; Log [ligand] (M) -6,66.5004 and 68.8651 and 52.3118 and 47.96 and 45.1988 and 59.9253 and 82.9355 and 80.6889
same,"Gαi2, normalized response (single replicate values)",[1]; Log [ligand] (M) -7,70.0475 and 61.7708 and 39.3057 and 73.7314 and 51.6416 and 42.4375 and 78.3335 and 51.1294
same,"Gαi2, normalized response (single replicate values)",[1]; Log [ligand] (M) -8,83.0537 and 70.0475 and 49.9471 and 81.0947 and 82.9355 and 89.3784 and 101.344 and 61.7708
same,"Gαi2, normalized response (single replicate values)",[1]; Log [ligand] (M) -9,49.9471 and 40.488 and 71.2299 and 59.0049 and 80.1743 and 78.3335 and 46.1192 and 33.3938
same,"Gαi2, normalized response (single replicate values)",[1]; Log [ligand] (M) -10,20.3876 and 60.5885 and 12.111 and 42.4375 and 46.1192 and 22.1885 and 25.8702 and 19.2052
same,"Gαi2, normalized response (single replicate values)",[1]; Log [ligand] (M) -11,-28.0899 and -9.172 and -25.7252 and 25.8702 and -9.105 and 27.711 and -46.8421 and 9.7462
same,"Gαi2, normalized response (single replicate values)",[1]; Log [ligand] (M) -12,21.57 and -2.078 and 28.6643 and 3.78 and 2.86 and 9.303 (2×) and 6.199
same,Emax,[1]; TRUPATH,65 ± 6%
same,Gαi2 (Figure 3j),"[1]; source data of Figure 3j, U50,488 about 100",64.9839
same,highest potency,[2]; Gαz subtype,picomolar range
same,Emax,[2]; TRUPATH,101 ± 3%
same,Emax,[3],85 ± 3%
same,Emax,[4],101 ± 8%
same,Emax,[5],95 ± 5%
same,Emax,[6],87 ± 7%
same,Emax,[7],100 ± 4%
same,potency (log EC50) β-arrestin-2,[8],-8.493
same,β-arrestin-2 (Figure 3j),[8],91
same,Emax,"[8]; HEK293, read-out: Emax β-arrestin-1 recruitment",91 ± 8%
"C=CCN1CC[C@]23c4c5ccc(O)c4O[C@H]2[C@H](N)CC[C@@]3(O)[C@H]1C5 [β-NalA, β-naloxamine]",EC50,[9],150 nM
same,Emax,[9],22%
same,"stimulation of [35S]GTPγS binding, normalized",[9]; Log [ligand] (M) -5,26.3 and 15.7 and 17.2
same,"stimulation of [35S]GTPγS binding, normalized",[9]; Log [ligand] (M) -6,26.7 and 25.9 and 13
same,"stimulation of [35S]GTPγS binding, normalized",[9]; Log [ligand] (M) -6.5,25.5 and 13.8
same,"stimulation of [35S]GTPγS binding, normalized",[9]; Log [ligand] (M) -7,15.4 and 11.8 and 3.2
same,"stimulation of [35S]GTPγS binding, normalized",[9]; Log [ligand] (M) -7.5,4.1
same,"stimulation of [35S]GTPγS binding, normalized",[9]; Log [ligand] (M) -8,17.5 and 5.8 and 1.8
same,"stimulation of [35S]GTPγS binding, normalized",[9]; Log [ligand] (M) -8.5,4
same,"stimulation of [35S]GTPγS binding, normalized",[9]; Log [ligand] (M) -9,20.6 and 20.7 and 0
same,"stimulation of [35S]GTPγS binding, normalized",[9]; Log [ligand] (M) -10,8.5 and 3.1 and 0.3
same,"stimulation of [35S]GTPγS binding, normalized",[9]; Log [ligand] (M) -11,8.8 and 6 and 1
same,"stimulation of [35S]GTPγS binding, normalized",[9]; Log [ligand] (M) -12,2
same,Ki,[10],72 nM
same,"specific [3H]DPN binding, normalized to 100%",[10]; Log [ligand] (M) -5,4.737 and -0.7945 and 2.618
same,"specific [3H]DPN binding, normalized to 100%",[10]; Log [ligand] (M) -5.5,7.624 and 1.593 and 6.477
same,"specific [3H]DPN binding, normalized to 100%",[10]; Log [ligand] (M) -6,15.6906 and 8.934 and 15.8979
same,"specific [3H]DPN binding, normalized to 100%",[10]; Log [ligand] (M) -6.5,35.1232 and 21.428 and 37.6169
same,"specific [3H]DPN binding, normalized to 100%",[10]; Log [ligand] (M) -7,55.6281 and 51.2816 and 59.6036
same,"specific [3H]DPN binding, normalized to 100%",[10]; Log [ligand] (M) -7.5,78.1171 and 80.8645 and 81.4583
same,"specific [3H]DPN binding, normalized to 100%",[10]; Log [ligand] (M) -8,95.8025 and 95.1499 and 93.7293
same,"specific [3H]DPN binding, normalized to 100%",[10]; Log [ligand] (M) -8.5,97.8462 and 101.481 and 96.8345
same,"specific [3H]DPN binding, normalized to 100%",[10]; Log [ligand] (M) -9,98.6307 and 97.8789 and 97.5636
same,"specific [3H]DPN binding, normalized to 100%",[10]; Log [ligand] (M) -9.5,100
same,"agonist response at DOR, Figure S13b",[11]; Log [ligand] (M) -5,29.5 and 25.6
same,"agonist response at DOR, Figure S13b",[11]; Log [ligand] (M) -5.5,26.4 and 22
same,"agonist response at DOR, Figure S13b",[11]; Log [ligand] (M) -6.5,11.6 and 22.3
same,"agonist response at DOR, Figure S13b",[11]; Log [ligand] (M) -7,11.8 and 10.9 and 6.8
same,EC50 (M) DOR,[11]; [35S]GTPγS,no stimulation up to 10 µM
same,"agonist response at MOR, Figure S13a",[12]; Log [ligand] (M) -9,0.0
same,EC50 (M) MOR,[12]; [35S]GTPγS,no stimulation up to 10 µM
same,EC50,[13],15 nM
same,β-arrestin-3 (Figure 3j),[13],50.66
same,Emax,"[13]; HEK-293T, read-out: Emax β-arrestin-2 recruitment",51%
same,"β-arrestin-2 recruitment, normalized",[13]; Log [ligand] (M) -5,75.0642 and 33.7213 and 53.9146
same,"β-arrestin-2 recruitment, normalized",[13]; Log [ligand] (M) -6,47.1252 and 26.1295 and 56.8071
same,"β-arrestin-2 recruitment, normalized",[13]; Log [ligand] (M) -7,55.6969 and 39.8004 and 43.7179
same,"β-arrestin-2 recruitment, normalized",[13]; Log [ligand] (M) -8,23.8448 and 3.34 and 20.2841
same,"β-arrestin-2 recruitment, normalized",[13]; Log [ligand] (M) -9,18.9925 and 16.6241
same,"β-arrestin-2 recruitment, normalized",[13]; Log [ligand] (M) -10,9.149 and -15.1009 and 26.0906
same,EC50,[14],130 nM
same,Emax,"[14]; HEK-293T, read-out: Emax cAMP assay",61%
CC[C@H](C)[C@H](NC(=O)[C@H](CCCN=C(N)N)NC(=O)[C@H](CCCN=C(N)N)NC(=O)[C@H](CC(C)C)NC(=O)[C@H](Cc1ccccc1)NC(=O)CNC(=O)CNC(=O)[C@@H](N)Cc1ccc(O)cc1)C(=O)N[C@@H](CCCN=C(N)N)C(=O)N1CCC[C@H]1C(=O)N[C@@H](CCCCN)C(=O)N[C@@H](CC(C)C)C(=O)N[C@@H](CCCCN)C(N)=O [dynA1-13],EC50,[15],0.204 nM
same,EC50,[16],0.00501 nM
same,remaining at 5 min,[17],106%
same,remaining at 10 min,[17],85%
same,remaining at 20 min,[17],66%
same,remaining at 40 min,[17],33%
same,remaining at 1 h,[17],7%
same,remaining at 2 h,[17],2%
same,remaining at 4 h,[17],0%
same,remaining at 6 h,[17],0.1%
same,remaining at 24 h,[17],0.1%
same,remaining at 48 h,[17],5%
same,"serum stability, amount remaining, Figure S15",[18],100
same,"serum stability, amount remaining, Figure S15",[18]; 40 min,30
same,"serum stability, amount remaining, Figure S15",[18]; 1 h,6
same,EC50,[19],0.0437 nM
same,EC50,[13]; EC50 β-arrestin-2 recruitment,31 nM
same,EC50,[13]; potency (log EC50) β-arrestin-3,31 nM
same,EC50,[20],6.61 nM
same,EC50,[21],7.94 nM
same,EC50,[22],0.148 nM
same,EC50,[14],4.9 ± 1.8 nM
same,EC50,[23],1.32 nM
same,EC50,[24],0.0302 nM
same,EC50,[25],0.617 nM
